Like-named read-outs stand apart in the source and are kept apart here. Marks after values point to notes of the source that are not given here.
Columns and labels:
[1] = Amperometric determination of H2S release; assay type: physicochemical; settings: assay buffer, absence or presence of L-cysteine
Protocol: FIG. 1: Curves describe the increase of H2S concentration, with respect to time, following the incubation of GYY 4137, the H2S-prodrug MT66 in the assay buffer, in the absence (white symbol) or in the presence of L-cysteine (black symbol) or glutathione (black triangles). H2S was recorded by amperometry; the vertical bars indicate the SEM.
Amperometric Determination of H2S: The characterization of the H2S-generating properties of the new compounds was carried out by amperometric approaches through an Apollo-4000 Free Radical Analyzer (WPI) detector and H2S-selective minielectrodes. The procedure has been recently reported by us.
The H2S-releasing properties were evaluated both in the absence or in the presence of an organic thiol such as L-cysteine.

[2] = system: Human neuronal-like cells; assay: ROS production in LPS/TNF-α challenged neuronal-like cells (DCFH2-DA); assay type: cell-based; settings: 10 μM pre-treatment 24 h, then LPS and TNF-α 16 h
Protocol: FIG. 3. Effects induced on ROS production. Human neuronal-like cells were treated with medium alone (CONTROL) or the compound (10 μM) for 24 h; after drug removal, cells were incubated with 50 μg/ml LPS and 50 ng/ml TNF-α for an additional 16 h. At the end of treatment, ROS production was measured using the fluorogenic probe DCFH2-DA. The data are expressed as percentages relative to untreated cells (control), which were set at 100%, and represent the mean±SEM of two independent experiments, each performed in triplicate. Statistical significance was determined using a one-way ANOVA-Tukey HSD post hoc test: ***P<0.001 vs. control; ###P<0.001 vs. cells treated with LPS-TNF-α.
Mitochondria ROS generation: The generation of ROS was assessed by the fluorogenic probe DCFH2-DA (Molecular Probes, Invitrogen) in Neuronal-like cells, differentiated from H9-derived NSCs.). […] This nonfluorescent molecule is readily converted to a green-fluorescent form […] when the acetate group is removed by intracellular esterases and an oxidation by ROS occurs within the cell. […] Fluorescence increase was estimated in a plate reader at 485 nm (excitation) and 520 nm (emission) (Wallac, Victor 2, 1420 multilabel counter, PerkinElmer). The fluorescence values were normalized between samples for cell number content and assessed by a crystal violet cell staining assay. […]

NMDAR = assay: Displacement of specific [3H]MK-801 binding in rat cortex membranes
Protocol: [^3H]MK-801 Binding Assay. Crude synaptic membranes were prepared from the cerebral cortex of Sprague-Dawley rats. The pellets were stored at −80° C. for at least 24 h, and washed three more times with Tris-HEPES buffer (Tris 4.5 mM, HEPES 5 mM, pH 7.4) to remove the endogenous amino acids before the binding assay. In the binding assay, 50 μL of membrane preparation (40-50 μg protein), and 10 μL of compound were mixed at 25° C. in the presence of […] L-glutamate (10 μM) and 50 μL of glycine (10 μM). Then, 50 μl of [^3H]MK-801 (final concentration 3 nM) were added to the preparation. Tris-HEPES buffer was added to a final volume of 0.5 mL. Following incubation time of 2 h at 25° C., binding was terminated by filtration […]. Radioactivity was measured using a PerkinElmer liquid scintillation counter. Nonspecific binding was determined in the presence of unlabeled 100 μM MK-801. […] For compound activity determination, aliquots of membrane pellets were incubated with different ligand concentrations of MT66 and reference drug (10 nM-10 μM) in the absence of presence of 4 mM Cysteine for 30 min, and then incubated with 3 nM [^3H]MK-801 for 2 h at 25° C. Samples were then filtered, and the radioactivity was counted.
Displacement of specific [^3H]MK-801 binding in rat cortex membranes in the absence or presence of cysteine (Cys). MT66 was tested to assess its abilities to inhibit native-target activity (i.e. NMDAR). Binding to specific receptors (such as NMDAR) has been assessed using the assay based on the displacement of [^3H]MK-801 [19]. The evaluation has been performed in the presence and in absence of Cys.

[3] = system: Human neuronal-like cells; assay: Neuroprotection in LPS/TNF-α challenged neuronal-like cells (MTS assay); assay type: cell-based; settings: 10 μM pre-treatment 24 or 72 h, then 50 μg/ml LPS and 50 ng/ml TNF-α 16 h
Protocol: FIG. 2: Neuroprotective effects. Human neuronal-like cells were treated with medium alone (CONTROL) or with the compounds (10 μM) for 24 h (light grey) or 72 h(dark grey); after drug removal, cells were incubated with 50 μg/ml LPS and 50 ng/ml TNF-α for an additional 16 h. At the end of treatment, cell proliferation was measured by MTS assay. The data are expressed as percentages relative to untreated cells (control), which were set at 100%, and represent the mean±SEM of three independent experiments, each performed in triplicate. Statistical significance was determined using a one-way ANOVA-Tukey HSD post hoc test: *P<0.05, ***P<0.001 vs. control; ##P<0.01, ###P<0.001 vs. cells treated with LPS-TNF-α.
Cell proliferation/viability assays: Following incubation time, cell viability was determined using the MTS assay according to the manufacturer's instruction. […] The absorbance of formazan at […] was measured in a colorimetric assay with an automated plate reader. The results were calculated by subtracting the mean background from the values obtained from each test condition, and are expressed as the percentage of the control (untreated cells).
Evaluation of neuroprotective effects. […] The effects of H2S prodrug under physiological conditions and under inflammatory stress exposure were assessed by measuring cellular viability.

[4] = system: Aβ(1-40) self-induced aggregation; assay: Thioflavin T fluorescence assay of Aβ aggregation; assay type: cell-based; settings: 10 μM pre-treatment 24 h, ThT fluorescence
Protocol: The Thioflavin T fluorescence assay. Thioflavin T (ThT) dye fluorescence was used to quantify the formation and inhibition of amyloid oligomers in the presence of anti-amyloidogenic compounds. The ThT stock solution was prepared by adding 8 mg ThT to 10 mL phosphate buffer (10 mM phosphate, 150 mM NaCl, pH 7.0) and filter through a 0.2 μm syringe filter. This stock solution should be stored in the dark and is stable for about one week. On the day of the analysis, the stock solution was diluted into PBS to obtain the concentration of 10 μM. The Aβ1-42 oligomers were prepared by diluting the stock solution in PBS and the dilution was shaking for 48 hours at 37° C. The cells were seeded in black 96-multiwell plate (3000 c/w) and treated with the compound MT66 and reference drug (10 μM) for 24 h. Following incubation time, cells were washed and incubated with Aβ1-42 oligomers for 24 h. After this time, 200 μl of ThT 10 μM were added to each well in the dark. The ThT fluorescence intensity of each sample was recorded every 5 min using a spectrophotometer by excitation at 355 nm and emission 535 nm.
Inhibition of Aβ(1-40) self-induced aggregation. The new compound was also tested to evaluate their ability to inhibit the Aβ(1-40) self-induced aggregation.

U87MG cells = assay: Western blot of autophagy markers in U87MG cells; assay type: cell-based, human; settings: 10 μM; for LC3II expression (LC3II/LC3I ratio) / p62 expression / p-mTOR expression (p-mTOR/mTOR ratio): 4 h; for LC3II expression: 24 h
Protocol: FIG. 6. Western blot quantification of LC3II/LC3I ratio, p62, mTOR and Akt as hallmarks of the degree of ATG activation. […] (D) Western blot quantification of pAkt/Akt ratio in U87MG cells. Results represent mean±SEM of three different gels. *P<0.05, **P<0.01, ***P<0.001 versus vehicle treated cells (Control).
Western blot analysis. The human U-87MG cells were seeded in 6-well plates in a final volume of 2 ml/well at a density of 1×10^6/well and grown to 80% of confluence with standard medium (DMEM-High Glucose). Cells were treated with vehicle (0.1% DMSO) or test compounds (i.e. 10 μM Memantine or Memit and (1 μM) Rapamycin and incubated at 37° C. for 4 and 24 h. Treated cells were washed twice with PBS and lysed in Tris-buffered saline buffer-1% Triton-X100; NaCl 150 mM; Tris-HCl 20 mM; EDTA 1 mM; EGTA 1 mM; NaF 20 mM; Na4P2O7 25 mM; Na3VO4 1 mM; PMSF 1 mM; 8 μ/ml protein cocktail inhibitors (Sigma-Aldrich, Milan, Italy). Proteins (30-40 μg) were separated on Criterion TGX™ gel (4-20%) and transferred on Immuno-PVDF membrane (Bio-Rad, Milan, Italy) for 1 h. Blots were incubated for 12 h with diluted primary antibody [1:1000, LC3A/B; p62; mTOR, p-mTOR; Akt, p-Akt(Ser 473); β-actin, Cell Signaling] in 5% w/v BSA, 1× TBS and 0.1% Tween 20 at 4° C. under gentle shaking. Then, blots were washed three times for 10 min with 1× TBS, 0.1% Tween 20 and incubated for 1 h with secondary antibody (peroxidase-coupled anti rabbit in 1× TBS, 0.1% Tween 20). […] Band densitometric analysis was performed using Image Lab Software (Bio-Rad, Milan, Italy).
Evaluation of proautophagic activity: Expression of protein LC3-II, p62, and m-TOR, indicators of autophagy, were detected by western blotting, using Rapamycin as a positive control. In U87MG cell lines.

Rat microglia cells = assay: Microglia protection from Aβ(1-42) induced injury (MTS assay); assay type: cell-based; settings: 10 μM pre-treatment 24 h, then Aβ1-42 24 h
Protocol: FIG. 7. Rat microglia cells were pre-treated with the compounds (10 μM) for 24 h. After washing, the cells were incubated with Aβ1-42 for 24 h. At the end of treatments, cell proliferation was measured by MTS assay. The data are expressed as percentages relative to untreated cells (control), which were set at 100%, and represent the mean±SEM of three independent experiments, each performed in triplicate. Statistical significance was determined using a one-way ANOVA followed by a Bonferroni post-test: *p<0.05 vs control; #p<0.05 vs cells treated with Aβ1-42.
Cell proliferation/viability assays on rat microglia cells. Rat microglia cells were isolated from mixed cell culture obtained from Sprague-Dawley rat cortex, by gentle physical shaking, as described. After isolation, cells were seeded into 96 well-plated with fresh culture media and pretreated with MT66 or native drug (10 μM) for 24 h; before washing and incubation with Aβ1-42 for 24 h. Following incubation time, cell viability was determined using the MTS assay. The absorbance of formazan was measured at […]. The results were calculated by subtracting the mean background from the values obtained from each test condition and were expressed as the percentage of the control (untreated cells).
Microglia protection from Aβ(1-42) induced injury. Microglia, together with astrocytes, forms the main active immune defense of the CNS. […]

[5] = presence of 4 mM cysteine, 30 min preincubation, read-out: Ki, nM (+Cys 4 mM, 30 min)

| SMILES | H2S-releasing properties [1] | ROS accumulation under inflammatory conditions [2] | Percentage of inhibition of specific [3H]MK-801 binding (−Cys) (NMDAR; absence of cysteine, concentration not given) [% ^b] | Ki (NMDAR; [5]) [nM] | cell proliferation/viability after inflammatory insult [3] | Aβ(1-40) self-induced aggregation [4] | LC3II expression (LC3II/LC3I ratio) (U87MG cells) | p62 expression (U87MG cells) | p-mTOR expression (p-mTOR/mTOR ratio) (U87MG cells) | LC3II expression (U87MG cells) | cell proliferation after Aβ1-42 oligomers (Rat microglia cells) | Ki (NMDAR; absence of cysteine, 3 nM [3H]MK-801, rat cortex membranes, read-out: Ki, nM (−Cys)) [nM] | Kd (NMDAR; rat cortex membranes, read-out: dissociation constant (Kd) of [3H]MK-801) [nM] |
| --- | --- | --- | --- | --- | --- | --- | --- | --- | --- | --- | --- | --- | --- |
| C1COCCN1.COc1ccc(P(=S)(S)N2CCOCC2)cc1 (centres unmarked) [GYY4137, reference compound] | slow H2S-releasing |  |  |  |  |  |  |  |  |  |  |  |  |
| CC12CC3CC(C)(C1)CC(N=C=S)(C3)C2 [MT66] | slow and L-cysteine-dependent H2S-releasing mechanism | almost completely counteracted inflammatory-mediated effects | 28.0 | 458 ± 77.7 | exhibited neuroprotective effects during inflammation | induces a reduction | significant up-regulation | decreased expressions | decreased expressions | remained almost unchanged | completely restore cell proliferation |  |  |
| CC12CC3CC(C)(C1)CC(N)(C3)C2 [Memantine, reference compound] |  |  |  | 329 ± 10.9 |  |  | significant up-regulation | decreased expressions | decreased expressions | remained almost unchanged | completely restore cell proliferation | 955 ± 74.2 |  |
| CC12NC(Cc3ccccc31)c1ccccc12 (centres unmarked) [[^3H]MK-801] |  |  |  |  |  |  |  |  |  |  |  |  | 4 |

From patent publication US20210070730A1, “H2S-BASED THERAPEUTIC AGENTS FOR THE TREATMENT OF NEURODEGENERATIVE DISEASES” (INTERNATIONAL SOCIETY FOR DRUG DEVELOPMENT S.R.L., priority 2017, published 2021)
